# Measured values as given in US8618074B2, “GPCR enhanced neuroprotection to treat brain injury” (Board of Regents of the University of Texas System, priority 2007, dated 2013).
# Tests used:
# astrocytes [1] = experiment: Intracellular ATP determination (luciferin-luciferase); format: cell-based, mouse
# Protocol: Intracellular ATP was measured using a luciferin-luciferase kit (Invitrogen, #22066). Plated astrocytes were trypsinized and washed 3× with PBS buffer (GIBCO #14190). An aliquot of cells was set aside to measure the cell density with a hemocytometer. The cells were then suspended in a lysate buffer (4 mM EDTA and 100 mM Tris, pH 7.75) and immediately heated to 100° C. for 5 minutes to minimize enzymatic changes in ATP levels. The supernatant was collected after a 10,000 g centrifugation for 1 minute and used with the luciferin/luciferase kit according to the manufacturer's instructions. Luminescence was measured with a Synergy™ HT Multi-Detection Microplate Reader (BioTek). ATP levels were normalized by cell density.
# Our next approach to investigate the role of mitochondrial metabolism was to directly measure ATP levels in cultures astrocytes using a luciferin-luciferase assay (Invitrogen). Astrocytes were cultured as described above, trypsinized and washed with buffer. The cells were then suspended in a lysate buffer and immediately heated to 100° C. (5 min) to minimize enzymatic changes in ATP levels. After centrifugation, the ATP dependent luminescence of supernatant was measured with a microplate reader (Biotek). FIG. 5C depicts histograms of the direct measurement of intracellular ATP levels relative to untreated cells (control), P2Y-R stimulated (MeADP), then the same measurements in the presence of oligomycin (oligo) or ruthenium 360 (Ru360). We estimated that the resting intracellular ATP concentration in cultured astrocytes was 0.31±0.14 μM ATP/10^4 cells (n=3). […] Finally, we tested whether ruthenium 360 (Ru360; Calbiochem), a polycation that inhibits the electrogenic mitochondrial Ca^2+ uniporter, affected mitochondrial ATP production.
# astrocytes [2] = experiment: Single cell astrocyte edema (swelling) after RB-induced photothrombotic event; format: in vivo, mouse; conditions: tail-vein injection
# Source text: A critical role for mitochondrial metabolism is also supported by new data obtained from a transgenic mouse model expressing a mitochondrial targeted DNA restriction enzyme, EcoR1, under the control of doxycycline (tTA/mtEcoR1, courtesy of Dr. Chris Walters, UTHSCSA). […] In addition to optically imaging multiple physiological parameters in single cells (e.g. mitochondrial membrane potentials and Ca2+ levels in real time), we have successfully imaged single cells edema formation in response to a Rose Bengal (RB)-induced photothrombotic event in a single blood vessel. Our preliminary measurements indicate that astrocyte volume increases over 6-fold during edema formation.
# astrocytes [3] = experiment: Time until mitochondrial membrane potential (ΔΨ, TMRE) collapse during t-BuOOH oxidative stress; format: cell-based, mouse; conditions: for time until ΔΨ collapse: oligomycin 1 μg/ml 30 min pretreatment, t-buOOH 100 μM; for mean time until ΔΨ collapse: oligomycin pretreatment + extracellular ATP 10 minutes, then oxidative stress
# Protocol: Primary cultures of astrocytes were prepared as previously published (Lin et al., 2005). C57BL/6 male mice were purchased from the National Institute of Aging and maintained in standard accredited housing conditions at the University of Texas Health Science Center Animal Facility. Animal protocols were approved by our Institutional Animal Care Use Committee. Astrocytes were cultured in DMEM F-12 media (Invitrogen, # 11039-021) supplemented with 2 mM glutamine, nonessential amino acids, 10% fetal calf serum, 100 U/ml penicillin/streptomycin (Cambrex BioScience Walkersville, #17-602E) and 1% fungizone (Invitrogen, #15290-018) at 37° C. in an atmosphere containing 5% CO2. The culture medium was changed every 3-5 days. Confluent cells were gently removed by a trypsin EDTA solution and re-plated on 35 mm glass bottom chambers (Bioptechs #04200415C) prior to imaging experiments 3-4 days later. Cells were maintained in plastic culture flasks until the final re-seeding of cells onto a glass bottom chamber and were passed up to 3 times for astrocyte only experiments. For co-culture experiments with neurons, primary astrocytes were plated directly onto corning transwell-clear permeable supports, which physically separates the two cell-types by ˜1 mm (# 07-200-170, Fisher scientific). Astrocytes were cultured in transwells until they were ˜70% confluent. Mouse cortical neurons (Cambrex Bio Science Walkersville Inc., # M-CX-300) were then cultured onto 6 well mat-tek glass bottom plates and maintained in Neurobasal Medium (Invitrogen, # 21103-049), 2 mM L-Glutamine (Cambrex BioScience Walkersville, #17-605E), 100 U/ml penicillin/streptomycin (Cambrex BioScience Walkersville, #17-602E) and B-27 with (Invitrogen, #17504-044) and without antioxidants (Invitrogen, #10889-038), which controls glia contamination to less than 0.5%. The transwell supports with cultured astrocytes were placed in the neuron seeded glass bottom chambers for four days before imaging and both cell types were then maintained in neuronal media. For neuron only experiments, the astrocytes on the transwell supports were removed prior to treatments and imaging.
# Mitochondrial membrane potentials (ΔΨs) was measured as previously described using the potential sensitive dye tetra-methyl rhodamine ethyl ester (TMRE, Molecular Probes, #T-669) (Lin and Lechleiter, 2002). Images were acquired with a 60× oil 1.4 NA objective on a Nikon PCM2000 confocal microscope custom adapted for two-photon imaging. A Ti-sapphire Coherent Mira 900 Laser pumped with a 5W Verdi laser (Coherent Inc., Santa Clara, Calif.) was used to excite TMRE at 800 nm A neutral-density filter wheel was used to attenuate the laser intensity so that no detectable photobleaching of TMRE was observed.
# To investigate this, primary cultures of astrocytes were prepared from the brains of young (4-6 months) and old (26-28 months) mice and re-plated on glass coverslips prior to each imaging experiment as previously described. Seeded glass coverslips were then sealed in an open chamber (Bioptechs Delta T) and perfused at 37° C. with the potential sensitive dye tetramethyl rhodamine ethyl ester (TMRE, 200 nM, Molecular Probes/Invitrogen) to label astrocyte mitochondria. Mitochondrial membrane potentials (ΔΨs) were measured every 5 minutes using two-photon microscopy. Each image is a maximum intensity projection of a z-stack of six optical sections (1-μm steps). Scale bar is 10 μm. Plated cells were continuously perfused at 37° C. with culture medium containing TMRE (200 nM) and imaged with 2-photon microscopy (800 nm). Oxidative stress was applied to the cells in the perfusate with t-BuOOH (100 μM). Cell viability was then monitored by the collapse of ΔΨ (TMRE fluorescence) to 10% of its initial value. The time course of ΔΨ collapse is plotted for 3 astrocytes (A1, A2, A3) in each culture (FIGS. 1B and 2B). Fluorescent units are scaled to 100% at 0 hours. […]
smiles,measurement,setting,value
CSc1nc(N)c2ncn([C@@H]3O[C@H](COP(=O)(O)OP(=O)(O)O)[C@@H](O)[C@H]3O)c2n1 [2-MeSADP],intracellular ATP levels,astrocytes [1]; 2-MeSADP 2 μM for 10 minutes,0.39±0.16 μM ATP/10^4 cells
same,astrocyte swelling (edema),astrocytes [2],significantly reduced swelling
same,time to apparently complete reversal of astrocyte swelling after the initial clot,astrocytes [2],≤ 8 h
Nc1ncnc2c1ncn2[C@@H]1O[C@H](COP(=O)(O)OP(=O)(O)OP(=O)(O)O)[C@@H](O)[C@H]1O [ATP],average time until ΔΨ collapse,"astrocytes [3]; old astrocytes, ATP 10 μM 10 min prior to t-BuOOH 100 μM",6.65 ± 0.24 h
same,average time for ΔΨ to collapse,"astrocytes [3]; young astrocytes, ATP 10 μM 10 min prior to t-BuOOH 100 μM",7.35 ± 0.23 h
CC[C@H]1/C=C/C=C/C[C@@H](C)[C@H](O)[C@@](C)(O)C(=O)[C@@H](C)[C@H](O)[C@@H](C)C(=O)[C@@H](C)[C@H](O)[C@@H](C)/C=C/C(=O)O[C@@H]2[C@H](C)[C@H](CC1)O[C@]1(CC[C@H](C)[C@H](C[C@@H](C)O)O1)[C@H]2C [oligomycin],time until ΔΨ collapse,astrocytes [3]; old astrocytes,4.16 ± 0.14 h
same,mean time until ΔΨ collapse,astrocytes [3]; old astrocytes,3.21±0.08
same,time until ΔΨ collapse,astrocytes [3]; young astrocytes,5.15 ± 0.08 h
same,mean time until ΔΨ collapse,astrocytes [3]; young astrocytes,4.69±0.23
same,effect on P2Y1-R (2-MeSADP) mediated increases in ATP,astrocytes [1]; oligomycin 0.01 μM 30 min pretreatment + 2-MeSADP,completely inhibited
same,"resting levels of ATP, % of control","astrocytes [1]; oligomycin 0.01 μM, 30 min",82.6%±3.2 % of control
